According to ChEMBL document CHEMBL1201862, “PubChem BioAssay data set” (2004):
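In this assay, cells in 96-well plates receive the compound at five concentrations for 48 hours. Endpoints are linearly interpolated between the surrounding concentrations. Here, GI50 denotes the concentration required for 50% inhibition of growth.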 Active and inactive are the calls of the source. Rule as the data show it: active = GI50 up to about 1.1 µM and inactive = higher.

Key:
Assay in all cases: NCI anticancer screen, dose series, 48 h
SF-295 = test system: SF-295
HCT-116 = test system: HCT-116
OVCAR-5 = test system: OVCAR-5
Hs-578T = test system: Hs-578T
SK-MEL-28 = test system: SK-MEL-28
HT-29 = test system: HT-29
SF-539 = test system: SF-539
786-0 = test system: 786-0
MDA-N = test system: MDA-N
OVCAR-3 = test system: OVCAR-3
NCI-H522 = test system: NCI-H522
DU-145 = test system: DU-145
TK-10 = test system: TK-10
SR = test system: SR
NCI-H226 = test system: NCI-H226
RXF 393 = test system: RXF 393
COLO 205 = test system: COLO 205
CCRF-CEM = test system: CCRF-CEM
HOP-92 = test system: HOP-92

Row | Compound | GI50 (SF-295) | GI50 (HCT-116) | GI50 (OVCAR-5) | GI50 (Hs-578T) | GI50 (SK-MEL-28) | GI50 (HT-29) | GI50 (SF-539) | GI50 (786-0) | GI50 (MDA-N) | GI50 (OVCAR-3) | GI50 (NCI-H522) | GI50 (DU-145) | GI50 (TK-10) | GI50 (SR) | GI50 (NCI-H226) | GI50 (RXF 393) | GI50 (COLO 205) | GI50 (CCRF-CEM) | GI50 (HOP-92)
1 | CC1=CC(=O)CC(C)(C)C1(O)/C=C/C(C)=C/C(=O)O (stereo unspecified) | > 100 µM (inactive) | > 100 µM (inactive) | > 100 µM (inactive) | > 100 µM (inactive) | > 100 µM (inactive) | > 100 µM (inactive) | > 100 µM (inactive) | > 100 µM (inactive) | > 100 µM (inactive) | > 100 µM (inactive) | > 100 µM (inactive) | > 100 µM (inactive) | > 100 µM (inactive) | > 100 µM (inactive) | > 100 µM (inactive) | > 100 µM (inactive) | > 100 µM (inactive) | > 100 µM (inactive) | > 100 µM (inactive)
2 | NC(=S)NN=Cc1ccccc1OCc1cccc(COc2ccccc2C=NNC(N)=S)n1 | 6.85 µM (inactive) | 32.7 µM (inactive) | 29.9 µM (inactive) | 18.1 µM (inactive) | > 100 µM (inactive) | > 100 µM (inactive) | 7.93 µM (inactive) | 12.4 µM (inactive) | > 100 µM (inactive) | 42.1 µM (inactive) | > 64.9 µM (inactive) | 13.7 µM (inactive) | 14.4 µM (inactive) | > 100 µM (inactive) | > 34.4 µM (inactive) | 2.4 µM (inactive) | > 87.7 µM (inactive) | > 100 µM (inactive) | 3.72 µM (inactive)
3 | CC(C)NC(=O)OCc1c(COC(=O)NC(C)C)c(-c2cc[n+](COC(=O)C(C)C)cc2)n2c1CCC2 | > 83.2 µM (inactive) | > 100 µM (inactive) | > 100 µM (inactive) | > 100 µM (inactive) | > 100 µM (inactive) | > 100 µM (inactive) | 17.7 µM (inactive) | 28 µM (inactive) | > 100 µM (inactive) | > 100 µM (inactive) | > 72.1 µM (inactive) | > 100 µM (inactive) | 41.5 µM (inactive) | > 25.2 µM (inactive) | > 100 µM (inactive) | 21 µM (inactive) | > 100 µM (inactive) | 39.9 µM (inactive) | 69.7 µM (inactive)
4 | COc1cccc2cc(C(=O)Nc3ccccc3)c(=N)oc12 | > 100 µM (inactive) | 24.3 µM (inactive) | > 100 µM (inactive) | 10.4 µM (inactive) | > 100 µM (inactive) | > 100 µM (inactive) | > 100 µM (inactive) | 15.7 µM (inactive) | > 100 µM (inactive) | > 100 µM (inactive) | > 28.2 µM (inactive) | > 100 µM (inactive) | > 100 µM (inactive) | > 71 µM (inactive) | > 100 µM (inactive) | > 100 µM (inactive) | > 100 µM (inactive) | > 21.8 µM (inactive) | 22.2 µM (inactive)
5 | c1cc2nnc1SCCSCCSc1ccc(nn1)SCCSCCS2 | > 100 µM (inactive) | > 100 µM (inactive) | > 100 µM (inactive) | > 100 µM (inactive) | > 100 µM (inactive) | > 100 µM (inactive) | 25.4 µM (inactive) | > 100 µM (inactive) | > 100 µM (inactive) | > 100 µM (inactive) | > 100 µM (inactive) | > 100 µM (inactive) | > 100 µM (inactive) | > 100 µM (inactive) | > 100 µM (inactive) | > 100 µM (inactive) | > 100 µM (inactive) | > 100 µM (inactive) | > 100 µM (inactive)
6 | O=C1Nc2ccccc2S/C1=C\c1ccccc1C(F)(F)F | > 100 µM (inactive) | > 100 µM (inactive) | > 100 µM (inactive) | 51.9 µM (inactive) | > 100 µM (inactive) | > 100 µM (inactive) | 72.8 µM (inactive) | 44.1 µM (inactive) | > 100 µM (inactive) | > 100 µM (inactive) | 30.5 µM (inactive) | > 100 µM (inactive) | 40.6 µM (inactive) | > 100 µM (inactive) | > 100 µM (inactive) | > 100 µM (inactive) | > 100 µM (inactive) | 2.24 µM (inactive) | 5.38 µM (inactive)
7 | Cc1ccc([N+](=O)[O-])c2c(NCC(O)CO)ccnc12 (stereo unspecified) | 42.1 µM (inactive) | 44.4 µM (inactive) | > 100 µM (inactive) | 7.71 µM (inactive) | > 100 µM (inactive) | 30.7 µM (inactive) | 19.3 µM (inactive) | 30.5 µM (inactive) | 42.3 µM (inactive) | 36.1 µM (inactive) | > 10 µM (inactive) | 51.4 µM (inactive) | 48.2 µM (inactive) | 95.1 µM (inactive) | 73.1 µM (inactive) | 45.9 µM (inactive) | 25.5 µM (inactive) | 83.9 µM (inactive) | 34.8 µM (inactive)
8 | CC(=O)O[C@H]1CC[C@@]2(C)C(=CC[C@@H]3[C@@H]2CC[C@]2(C)C(=N/O)/C(=C\c4ccccc4)C[C@@H]32)C1 | 14.8 µM (inactive) | 6.12 µM (inactive) | 17.1 µM (inactive) | 22.5 µM (inactive) | 12.7 µM (inactive) | 3.99 µM (inactive) | 15.9 µM (inactive) | 13.9 µM (inactive) | 4.71 µM (inactive) | 11.3 µM (inactive) | 3.53 µM (inactive) | 23.4 µM (inactive) | 24.2 µM (inactive) | 3.27 µM (inactive) | 12.5 µM (inactive) | 9.48 µM (inactive) | 10.6 µM (inactive) | 17.7 µM (inactive) | 41.1 µM (inactive)
9 | CCOC(=O)CC1(Cc2ccc(OCc3ccccc3)cc2)C(=O)OC(c2ccccc2)N1C(=O)c1ccccc1 (stereo unspecified) | > 100 µM (inactive) | > 100 µM (inactive) | > 100 µM (inactive) | > 100 µM (inactive) | > 100 µM (inactive) | > 100 µM (inactive) | > 100 µM (inactive) | > 100 µM (inactive) | > 100 µM (inactive) | > 100 µM (inactive) | > 100 µM (inactive) | > 100 µM (inactive) | > 100 µM (inactive) | > 100 µM (inactive) | > 100 µM (inactive) | > 100 µM (inactive) | > 100 µM (inactive) | > 100 µM (inactive) | > 100 µM (inactive)
10 | CC(=O)CC1(O)C(=O)c2c(Br)sc(Br)c2C1=O | > 100 µM (inactive) | 19.8 µM (inactive) | 17.6 µM (inactive) | 31.3 µM (inactive) | 20.7 µM (inactive) | 21.7 µM (inactive) | 23.6 µM (inactive) | 23.7 µM (inactive) | 22.3 µM (inactive) | 16.9 µM (inactive) | 18.4 µM (inactive) | 42.8 µM (inactive) | 25.9 µM (inactive) | 21.1 µM (inactive) | 65.6 µM (inactive) | 24.7 µM (inactive) | 18.7 µM (inactive) | 15.1 µM (inactive) | 18.8 µM (inactive)
11 | O=c1[nH]nc(-c2ccccc2)n1/N=C/c1ccc([N+](=O)[O-])cc1 | 27.2 µM (inactive) | 25 µM (inactive) | > 100 µM (inactive) | 17 µM (inactive) | > 100 µM (inactive) | > 100 µM (inactive) | 17.1 µM (inactive) | 6.64 µM (inactive) | > 100 µM (inactive) | 19.7 µM (inactive) | > 100 µM (inactive) | 56.1 µM (inactive) | 20 µM (inactive) | > 100 µM (inactive) | 27.6 µM (inactive) | 8.43 µM (inactive) | > 100 µM (inactive) | > 100 µM (inactive) | 10 µM (inactive)
12 | COc1ccc(N(CN2C(=O)CCC2OC)C(C)=O)cc1 (stereo unspecified) | > 100 µM (inactive) | > 100 µM (inactive) | > 100 µM (inactive) | > 100 µM (inactive) | > 100 µM (inactive) | > 100 µM (inactive) | > 100 µM (inactive) | > 100 µM (inactive) | > 100 µM (inactive) | > 100 µM (inactive) | > 100 µM (inactive) | > 100 µM (inactive) | > 100 µM (inactive) | > 100 µM (inactive) | > 100 µM (inactive) | > 100 µM (inactive) | > 100 µM (inactive) | > 100 µM (inactive) | > 100 µM (inactive)
13 | C/C(=C\[C@H]1C[C@@H]([C@@H]2CC[C@]34C[C@]23C=C[C@@H]2[C@@]3(C)CC=C5C[C@@H](c6ccccc6)OC[C@]5(C)[C@@H]3C[C@@H](O)[C@]24C)C(=O)O1)CO [DICHAPETALIN A] | 1.34 µM (inactive) | 1.14 µM (inactive) | 9.82 µM (inactive) | 10.9 µM (inactive) | 3.74 µM (inactive) | 2.01 µM (inactive) | 5.08 µM (inactive) | 4.38 µM (inactive) | 1.71 µM (inactive) | 3.52 µM (inactive) | 2.88 µM (inactive) | 10.2 µM (inactive) | 2.84 µM (inactive) | < 0.01 µM (active) | 14.9 µM (inactive) | 77.8 µM (inactive) | 2.01 µM (inactive) | 1.04 µM (active) | 1.95 µM (inactive)
14 | CN(C)CCCN1c2ccc([N+](=O)[O-])cc2CCc2cccc([N+](=O)[O-])c21 | 15 µM (inactive) | 14.3 µM (inactive) | 13 µM (inactive) | 14.4 µM (inactive) | 14.8 µM (inactive) | 13.7 µM (inactive) | 15.2 µM (inactive) | 13.6 µM (inactive) | 14.8 µM (inactive) | 15.4 µM (inactive) | 17.7 µM (inactive) | 17.4 µM (inactive) | 11.1 µM (inactive) | 35.2 µM (inactive) | 13.3 µM (inactive) | 10.5 µM (inactive) | 12.8 µM (inactive) | 16.7 µM (inactive) | 11 µM (inactive)
